Source: patent US20220340849A1, “BRAIN-CHIP MODELING NEURODEGENERATION AND NEUROINFLAMMATION IN PARKINSON'S DISEASE” (EMULATE, INC., priority 2019, published 2022)

What was measured:
[1] = tested on: brain channel cells of the SN Brain-Chip (dopaminergic neurons); assay: Immunostaining of phospho-αSyn129 / αSyn accumulation in the brain channel; format: cell-based, human; conditions: 10 mM dose, compared to cells exposed to αSyn fibrils alone
Description: Thus, the capability of exogenously added fibrils was accessed for accumulation and processing cells of a SN Brain-Chip. Recombinant αSyn fibrils (4 μg/mL) was added in the culture medium of the brain channel under continuous flow, on Day 2 of the culture (FIG. 57A).
After three- and six-days upon-exposure to αSyn fibrils (D5 and D8 of the experiment, respectively), the exposed chips underwent immunostaining in order to determine the abundance of phosphoSer129-alph α-synuclein (phospho-αSyn129), a post-translational modification characteristic of pathogenic αSyn species^47,48.
Addition of exogenous alpha-synuclein to brain channel. Human recombinant αSyn monomers and pre-formed fibrils were purchased from Abcam (Monomers; ab218819, Fibrils; ab218819), and were diluted in DopaNeurons Media to a final concentration of 4 μg/mL. […]
For treatment, freshly prepared monomers and fibrils were used. […] Effluents, lysates, and staining were collected/fixed at day three- and day six post-exposure (D5 and D8 respectively), and were analyzed by a microplate reader, ELISA kits, and immunofluorescence microscopy.
Morphological analysis. […] Images were acquired with either an Olympus fluorescence microscope (IX83) or an inverted laser-scanning confocal microscope, e.g. Zeiss confocal microscope (AxiovertZ1 LSM880).

[2] = tested on: BBB in the SN Brain-Chip; assay: Permeability assays (apparent permeability, Papp) on the SN Brain-Chip; format: cell-based, human; conditions: αSyn fibril damaged SN Brain-Chips, trehalose added via brain channel on day 5, read after 72 hours (D8)
Description: Thus, BBB permeability assays were measured on the SN Brain-Chip after exposure to αSyn fibrils, as compared to exposure to αSyn monomers or PBS.
Permeability Assays, e.g., evaluate the establishment and integrity of the barrier. Apparent permeability (Papp) of the barrier was calculated by following a previously described method^81. […] After 24 hrs, effluent from both channels was sampled to determine the dye's concentration (amount) that had diffused through the membrane. […] Then, the following equation was used to calculate apparent paracellular permeability (Papp) based on a standard curve and using the following formula:

[3] = tested on: endothelial cells of the SN Brain-Chip; assay: Morphological analysis of tight junctions in endothelial cells in the αSyn fibril model; format: cell-based, human
Description: The junction protein expression of Claudin-5 was visualized by immunofluorescence staining with a Claudin-5 antibody and DAPI for cell nuclei. Scale bars: 50 μm.
Morphological analysis. Immunocytochemistry, including immunofluorescence microscopy, was conducted as previously described (Pediaditakis et al., 2020). Brief examples of methods are described herein. Brain-Chips were fixed with 4% paraformaldehyde in PBS for 10 min and then washed with PBS. Cells were blocked on the Brain-Chip in phosphate-buffered saline (PBS) containing 10% donkey serum (Sigma) at 4° C. overnight. Immunostaining was performed after permeabilization in PBS with 0.1% Saponin and blocking for 30 min in 10% donkey serum in PBS with 0.1% Saponin. Immunostaining was performed with specific primary antibodies (anti-TH, anti-GFAP, anti-NG2, anti-TMEM119, anti-pSer129-αSyn, anti-Cleaved Caspase-3, anti-CD68; Abcam), (anti-MAP2, and anti-CD31; Thermo Fisher Scientific), (anti-Claudin-1, anti-Claudin-5, anti-Occludin, anti-ZO-1; Invitrogen), in a 1:100 dilution in 10% donkey serum in PBS with 0.1% Saponin and incubated overnight on the Brain-Chip at 4° C. […] Images were acquired with either an Olympus fluorescence microscope (IX83) or an inverted laser-scanning confocal microscope, e.g. Zeiss confocal microscope (AxiovertZ1 LSM880).

[4] = tested on: HMC3 cells; conditions: 10 ng/ml, 24 h; cited from earlier work
[5] = tested on: neurons, astrocytes and microglia in the brain channel of the Brain-Chip; format: cell-based, human
Description: Neuroinflammation incorporates a broad spectrum of complex cellular responses that often contribute to the pathogenesis and progression of various neurological disorders. To study the effects of neuroinflammatory specific signals on the Brain-Chip, TNF-α was perfused within the brain channel at a pathophysiological concentration of 100 ng/mL (FIG. 36A and FIG. 35). […] In addition, excessive TNF-α levels have been reported to have an inhibitory effect on glutamate transporters, resulting in increased glutamate concentration in the CNS parenchyma, linking the central inflammatory response to glutamate-mediated toxicity. To test this hypothesis in this system, secreted glutamate levels were measured by enzyme-linked immunosorbent assay (ELISA).
In one embodiment, a model of neuroinflammation was provided by treating cells as a neurovascular unit (brain side) with TNF-alpha added to the brain channel. TNFα, was previously reported to mediate neuroinflammation and detected in patients with neurological. disorders. On days 0 and 1, cells were seeded on the top and bottom channel of one embodiment of a Brain-Chip, respectively. The Brain-Chip is then allowed to mature under flow conditions for 4 more days and on day 5, cells on the brain side are treated with TNFα, for 48 hrs. During exposure, effluent is collected, and on the last day of the experiment, cells in chips may be imaged, stained for immunohistochemistry and imaged. In some embodiments, cells are lysed for transcriptomic analysis. Thus, modeling neuroinflammation comprises Brain chips and methods of use where TNF-a and/or other inflammatory compounds are added to the Brain channel. In some embodiments, such neuroinflamed brain chips are used in methods for developing treatments in addition for testing compounds for efficacy and safety.
(§1) TNF-α treatment. To mimic the inflammatory condition, cells were treated on either brain or vascular channel with TNF-α (Tumor Necrosis Factor-α, R&D Systems; 210-TA). The treatment was initiated after the formation of a confluent monolayer at ˜5 days in culture. Cells were further incubated in a culturing medium, including TNF-α (100 ng/ml) up to 48 hours.
Morphological analysis. Immunocytochemistry, including immunofluorescence microscopy, was conducted as previously described (Pediaditakis et al., 2020). Brief examples of methods are described herein. Brain-Chips were fixed with 4% paraformaldehyde in PBS for 10 min and then washed with PBS. Cells were blocked on the Brain-Chip in phosphate-buffered saline (PBS) containing 10% donkey serum (Sigma) at 4° C. overnight. […] Images were acquired with either an Olympus fluorescence microscope (IX83) or an inverted laser-scanning confocal microscope, e.g. Zeiss confocal microscope (AxiovertZ1 LSM880).

[6] = tested on: Brain-Chip brain channel cells; assay: Secreted cytokines (MSD V-PLEX) and glutamate in brain channel media of the TNF-α treated Brain-Chip; format: cell-based, human
Description: To determine whether the level of other inflammatory cytokines increases in this TNF-α model, levels of IFNγ, interleukin-1β (IL-1β) and IL-6, were measured following two days of exposure within the brain channel media. These cytokines are associated with the increase of BBB permeability.
In one embodiment, chips were seeded with human iPS-derived glutamatergic and GABAergic neurons (NeuCyte) at a density of 2×10^6 cells/mL and 0.75×10^6 cells/mL respectively, co-cultured with human primary microglia (ATCC; CRL3304) at a density of 1×10^5 cells/mL, human primary astrocytes (NeuCyte), and primary pericytes (Sciencell; 1200) at a density of 1×10^5 cells/mL, using “seeding medium” (NeuCyte), and incubated overnight. The next day, human iPS-derived Brain Microvascular Endothelial cells were seeded in the vascular channel at a density of 14-16×10^6 cells/mL using human serum-free endothelial cell medium supplemented with 5% human serum from platelet-poor human plasma (Sigma) and allowed to attach to the membrane overnight. Chips were then connected to the culture module. At this time, the medium supplying the brain channel was switched to maintenance medium (Neucyte), and the serum of the vascular medium was lowered to 2%. Chips were maintained under constant perfusion at 60 μL/hr through all chips' brain and vascular channels until day 7. Two additional commercial endothelial cell sources were used in experiments. Human primary endothelial cells (Cell Systems) and hCMEC/D3 (Millipore) were cultured in media according to the manufacturer's instructions.
as §1
ELISA analysis. The levels of IFNγ, IL-1β, and IL-6 were measured by M.S.D. 96-well plate Human Pro-Inflammatory V-PLEX Human Pro-Inflammatory Assay kits. The secreted levels of Glutamate were measured by Glutamate Assay Kit (Fluorometric) (Abcam; ab138883).

[7] = tested on: Blood-Brain Barrier of the Brain-Chip; assay: BBB permeability to 3 kDa dextran in the TNF-α treated Brain-Chip; format: cell-based, human
Description: To directly measure how BBB permeability changed over time in response to TNFα, the transport of 3-kDa Cascade Blue dextran was evaluated across the BBB. Fluorescent dextran molecule was introduced in the vascular channel. After 24 hrs and 48 hrs of exposure, the amount of fluorescent dextran collected in the Brain-side was measured.
as §1
Permeability Assays, e.g., evaluate the establishment and integrity of the barrier. Apparent permeability (Papp) of the barrier was calculated by following a previously described method^81. Briefly, 100 μg mL^−1 (0.1 mg/mL) of dextran (3 kDa, e.g. Cascade Blue) and/or 20 μg mL^−1 of Lucifer (0.5 kDa) tracers were dosed (flowed) through the vascular channels for 24 hrs. After 24 hrs, effluent from both channels was sampled to determine the dye's concentration (amount) that had diffused through the membrane. Concentration of the dextran and Lucifer tracers in the outlet samples from both vascular and brain channels was determined by using BioTek (BioTek Instruments, Inc., Winooski, Vt., USA). […]
Here, SA is the surface area of sections of the channels that overlap (0.17 cm^2), QR and QD are the fluid flow rates in the dosing and receiving channels respectively, in units of cm^3/s, CR,0 and CD,0 are the recovered concentrations in the dosing and receiving channels respectively, in any consistent units. IgG permeability was also evaluated after dosing the vascular channel and measuring the IgG content on the brain channel. Detection and quantitation of serum immunoglobulin G (IgG1; Abcam) was performed using the ELISA kit (Abcam), after 24 hrs of perfusion.

[8] = tested on: iPS-derived brain endothelial cells; assay: Immunofluorescence of ZO-1 and ICAM-1 in the vascular channel of the TNF-α treated Brain-Chip; format: cell-based, human
Description: BBB permeability assays were done on the Brain-Chip upon exposure to TNF-α compared to the untreated group.
Morphological analysis. Immunocytochemistry, including immunofluorescence microscopy, was conducted as previously described (Pediaditakis et al., 2020). Brief examples of methods are described herein. Brain-Chips were fixed with 4% paraformaldehyde in PBS for 10 min and then washed with PBS. Cells were blocked on the Brain-Chip in phosphate-buffered saline (PBS) containing 10% donkey serum (Sigma) at 4° C. overnight. Immunostaining was performed after permeabilization in PBS with 0.1% Saponin and blocking for 30 min in 10% donkey serum in PBS with 0.1% Saponin. Immunostaining was performed with specific primary antibodies (anti-TH, anti-GFAP, anti-NG2, anti-TMEM119, anti-pSer129-αSyn, anti-Cleaved Caspase-3, anti-CD68; Abcam), (anti-MAP2, and anti-CD31; Thermo Fisher Scientific), (anti-Claudin-1, anti-Claudin-5, anti-Occludin, anti-ZO-1; Invitrogen), in a 1:100 dilution in 10% donkey serum in PBS with 0.1% Saponin and incubated overnight on the Brain-Chip at 4° C. Additional primary antibodies were MAP2 (Thermo Fisher Scientific; MA512826), VGLUT1 (Thermo Fisher Scientific; 48-2400), GFAP (Abcam; ab53554), NG2 (Abcam; ab83178), CD68 (Abcam; ab213363), ICAM-1 (R&D Systems; BBA3), ZO-1 (Thermo Fisher Scientific; 402200), GLUT1 (Thermo Fisher Scientific; SPM498). Fluorescently conjugated secondary antibodies with Alexa Fluor-488, Alexa Fluor-568, or Alexa Fluor-647 (Abcam) were then used when the primary antibodies are not conjugated, incubated in the dark for 2 hr at room temperature. Cells were then counterstained with DAPI nuclear stain. Images were acquired with either an Olympus fluorescence microscope (IX83) or an inverted laser-scanning confocal microscope, e.g. Zeiss confocal microscope (AxiovertZ1 LSM880).

[9] = TNF-α 100 ng/mL perfused within the brain channel, two days, vs untreated
[10] = TNF-α 100 ng/mL in brain channel (neuroinflammation), two days, vs untreated
[11] = TNF-α perfused within the vascular channel (systemic inflammation), two days, vs untreated
[12] = TNF-α 100 ng/mL within the vascular channel, vs control

## OC[C@H]1O[C@H](O[C@H]2O[C@H](CO)[C@@H](O)[C@H](O)[C@H]2O)[C@H](O)[C@@H](O)[C@@H]1O [trehalose, O-α,-d-glucopyranosyl-[1→1]-α-d-glucopyranoside]
[1]
  accumulation of αSyn within the cells of the brain channel: diminished the accumulation of αSyn
[2]
  BBB permeability (3 kDa dextran): significantly decreased BBB permeability
[3]; αSyn fibril damaged SN Brain-Chips, trehalose treated, D8
  tight junctions (ZO-1, Claudin-5): rescuing damaged tight junctions
[3]; αSyn fibril model with or without trehalose treatment
  junction protein expression of ZO-1: restoration of junction protein expression of ZO-1

## IFN-gamma: cytokine used to activate HMC3 microglia cells
[4]
  markers of activated microglia MHCII, CD68 and CD11b: upregulated

## TNF-α
[5]; TNF-alpha 100 ng/ml
  microglia activation (phenotypic changes, phagocytosis of latex beads): activates microglia as shown by phenotypic changes and induction of phagocytosis
[5]; [9]
  proportion of the GFAP-positive cells: significantly increased
  proportion of the MAP2-positive cells: decreased
[5]; TNF-α 100 ng/mL, brain channel, two days of exposure
  activated microglia (CD68 expression): activated microglia were also observed
[6]; TNF-alpha, 24 and 48 hours
  IL-6 production, Brain chips with and without microglial cells: induced significant IL-6 production in both embodiments
[6]; TNF-alpha, after both 24 and 48 hours
  IL-6 secreted, Brain chips including microglial cells over those without: unexpected significant increase
[6]; TNF-α 100 ng/mL brain channel, two days, vs untreated
  secreted glutamate levels (ELISA), media of the brain channel: significantly higher
[6]; [10]
  level of IFNγ in brain channel media: significantly higher
  level of IL-1β in brain channel media: significantly higher
  level of IL-6 in brain channel media: significantly higher
[6]; TNF-α exposure, Brain-Chip without microglia
  level of IL-6 in brain channel media, absence of microglia: not stigmatically changed
[6]; [11]
  level of IFNγ in brain channel media: significantly higher levels
  level of IL-1β in brain channel media: significantly higher levels
  level of IL-6 in brain channel media: significantly higher levels
[7]; TNF-α 100 ng/mL in brain channel, 24 and 48 hrs, time dependent
  permeability to 3 kDa dextran: significantly increased permeability
[7]; TNF-α 100 ng/mL perfused within the vascular channel (systemic inflammation)
  permeability to 3 kDa dextran: significantly increased permeability
[7]; TNFα 100 ng/mL on the brain side, 24 hrs and 48 hrs
  transport through the BBB (apparent permeability) vs vehicle control: significantly increased by three times over the control
[8]; [12]
  expression of BBB tight junction protein ZO-1: significantly attenuated
  expression of ICAM-1: increased
[8]; TNF-α in brain channel, 48 hrs
  ZO-1 expression: loss of ZO-1
  intercellular adhesion molecule 1 (ICAM-1) expression: excessive increase
